# Measurements from article PMC5218480 (PLoS ONE, 2017).
# Tested on: MV-4-11 cells
# Assay: Gene expression microarray analysis (Affymetrix PrimeView) and GSEA
# Assay type: cell-based, human
# Set-up: RFU PODN (11730768_x_at) / Fold change /veh PODN (11730768_x_at) / RFU LINC00158 (11744669_a_at) / Fold change /veh LINC00158 (11744669_a_at) / RFU DUSP10 (11751237_a_at) / Fold change /veh DUSP10 (11751237_a_at) / RFU ID3 (11757404_x_at) / Fold change /veh ID3 (11757404_x_at) / RFU PLEKHG5 (11737974_s_at) / Fold change /veh PLEKHG5 (11737974_s_at) / RFU LRRC4B (11730491_at) / Fold change /veh LRRC4B (11730491_at) / RFU GIMAP4 (11747438_a_at) / Fold change /veh GIMAP4 (11747438_a_at) / RFU KRT8 (11758183_x_at) / Fold change /veh KRT8 (11758183_x_at) / RFU CNN1 (11734310_a_at) / Fold change /veh CNN1 (11734310_a_at) / RFU VPS37D (11726825_at) / Fold change /veh VPS37D (11726825_at) / RFU C10orf10 (11716522_x_at) / Fold change /veh C10orf10 (11716522_x_at) / RFU KIR2DL2 /// KIR2DL4 /// KIR2DL5A /// KIR2DL5B /// KIR2DS1 /// KIR2DS2 /// KIR2DS3 /// KIR2DS4 /// KIR3DL3 /// KIR3DL3 /// KIR3DS1 (11738374_at) / Fold change /veh KIR2DL2 /// KIR2DL4 /// KIR2DL5A /// KIR2DL5B /// KIR2DS1 /// KIR2DS2 /// KIR2DS3 /// KIR2DS4 /// KIR3DL3 /// KIR3DL3 /// KIR3DS1 (11738374_at) / RFU C1QL1 (11718748_at) / Fold change /veh C1QL1 (11718748_at) / RFU TMPRSS4 (11747572_a_at) / Fold change /veh TMPRSS4 (11747572_a_at) / RFU HAMP (11756126_x_at) / Fold change /veh HAMP (11756126_x_at) / RFU RNFT2 (11725882_a_at) / Fold change /veh RNFT2 (11725882_a_at) / RFU NR4A2 (11747474_a_at) / Fold change /veh NR4A2 (11747474_a_at) / RFU ABCC12 (11746883_a_at) / Fold change /veh ABCC12 (11746883_a_at) / RFU TMEM136 (11760407_x_at) / Fold change /veh TMEM136 (11760407_x_at) / RFU CLDN22 /// WWC2 (11732394_at) / Fold change /veh CLDN22 /// WWC2 (11732394_at) / RFU HLA-DPB1 (11760878_x_at) / Fold change /veh HLA-DPB1 (11760878_x_at) / RFU SPINT1 (11716480_a_at) / Fold change /veh SPINT1 (11716480_a_at) / RFU GAP43 (11754022_s_at) / Fold change /veh GAP43 (11754022_s_at) / RFU A4GNT (11735810_at) / Fold change /veh A4GNT (11735810_at) / RFU PRB3 (11715151_x_at) / Fold change /veh PRB3 (11715151_x_at) / RFU TUBB4B (11761932_at) / Fold change /veh TUBB4B (11761932_at) / RFU CAPN14 (11732068_a_at) / Fold change /veh CAPN14 (11732068_a_at) / RFU TMCC2 (11721928_a_at) / Fold change /veh TMCC2 (11721928_a_at) / RFU IRGQ (11745062_a_at) / Fold change /veh IRGQ (11745062_a_at) / RFU FAM174B (11720279_a_at) / Fold change /veh FAM174B (11720279_a_at) / RFU TMPRSS4 (11748680_a_at) / Fold change /veh TMPRSS4 (11748680_a_at) / RFU FAM212B (11763350_a_at) / Fold change /veh FAM212B (11763350_a_at) / RFU PLEKHG5 (11743358_a_at) / Fold change /veh PLEKHG5 (11743358_a_at) / RFU ZSCAN30 (11745921_a_at) / Fold change /veh ZSCAN30 (11745921_a_at) / RFU CMKLR1 (11741424_a_at) / Fold change /veh CMKLR1 (11741424_a_at) / RFU LOC101060620 /// MAPK8IP1 (11723275_at) / Fold change /veh LOC101060620 /// MAPK8IP1 (11723275_at) / RFU SPTSSB (11747773_x_at) / Fold change /veh SPTSSB (11747773_x_at) / RFU PRSS12 (11739890_at) / Fold change /veh PRSS12 (11739890_at) / RFU BIN1 (11741810_x_at) / Fold change /veh BIN1 (11741810_x_at) / RFU WNT11 (11732464_a_at) / Fold change /veh WNT11 (11732464_a_at) / RFU C10orf10 (11716521_a_at) / Fold change /veh C10orf10 (11716521_a_at) / RFU C5orf56 (11738089_at) / Fold change /veh C5orf56 (11738089_at) / RFU CYB561 (11721691_x_at) / Fold change /veh CYB561 (11721691_x_at) / RFU ANKRD19P (11752326_a_at) / Fold change /veh ANKRD19P (11752326_a_at) / RFU OR2T12 /// OR2T33 /// OR2T8 (11738714_s_at) / Fold change /veh OR2T12 /// OR2T33 /// OR2T8 (11738714_s_at) / RFU VCAN (11748164_a_at) / Fold change /veh VCAN (11748164_a_at) / RFU JSRP1 (11732532_at) / Fold change /veh JSRP1 (11732532_at) / RFU KRTAP10-11 (11738290_x_at) / Fold change /veh KRTAP10-11 (11738290_x_at) / RFU MYO3A (11730013_a_at) / Fold change /veh MYO3A (11730013_a_at) / RFU EBF3 (11725865_a_at) / Fold change /veh EBF3 (11725865_a_at) / RFU CAMK2N1 (11719241_x_at) / Fold change /veh CAMK2N1 (11719241_x_at) / RFU C5orf56 (11738088_a_at) / Fold change /veh C5orf56 (11738088_a_at) / RFU OLFML3 (11715873_a_at) / Fold change /veh OLFML3 (11715873_a_at) / RFU LOC100653217 /// NTM (11731650_a_at) / Fold change /veh LOC100653217 /// NTM (11731650_a_at) / RFU MAPK11 (11762145_a_at) / Fold change /veh MAPK11 (11762145_a_at) / RFU FIZ1 (11724087_x_at) / Fold change /veh FIZ1 (11724087_x_at) / RFU OASL (11726364_x_at) / Fold change /veh OASL (11726364_x_at) / RFU SOX15 (11748057_x_at) / Fold change /veh SOX15 (11748057_x_at) / RFU CD79A (11719716_a_at) / Fold change /veh CD79A (11719716_a_at) / RFU HIST1H1D (11736915_at) / Fold change /veh HIST1H1D (11736915_at) / RFU CASKIN2 (11723855_a_at) / Fold change /veh CASKIN2 (11723855_a_at) / RFU LOC730098 (11760151_x_at) / Fold change /veh LOC730098 (11760151_x_at) / RFU OR4N2 (11742367_at) / Fold change /veh OR4N2 (11742367_at) / RFU PRRT2 (11749266_a_at) / Fold change /veh PRRT2 (11749266_a_at) / RFU SNX32 (11753110_a_at) / Fold change /veh SNX32 (11753110_a_at) / RFU CDHR5 (11726645_a_at) / Fold change /veh CDHR5 (11726645_a_at) / RFU RCAN1 (11760418_a_at) / Fold change /veh RCAN1 (11760418_a_at) / RFU FAM167A (11723789_a_at) / Fold change /veh FAM167A (11723789_a_at) / RFU FAM26E (11764081_at) / Fold change /veh FAM26E (11764081_at) / RFU ISYNA1 (11749810_s_at) / Fold change /veh ISYNA1 (11749810_s_at) / RFU ACY1 (11761880_at) / Fold change /veh ACY1 (11761880_at) / RFU 11764098_at / Fold change /veh 11764098_at / RFU SAMD14 (11745864_x_at) / Fold change /veh SAMD14 (11745864_x_at) / RFU NPB (11741838_a_at) / Fold change /veh NPB (11741838_a_at) / RFU TMPRSS6 (11731388_a_at) / Fold change /veh TMPRSS6 (11731388_a_at) / RFU KRTAP10-2 (11738614_at) / Fold change /veh KRTAP10-2 (11738614_at) / RFU ARHGAP8 /// PRR5-ARHGAP8 (11727945_x_at) / Fold change /veh ARHGAP8 /// PRR5-ARHGAP8 (11727945_x_at) / RFU KRTAP5-7 /// NADSYN1 (11734609_at) / Fold change /veh KRTAP5-7 /// NADSYN1 (11734609_at) / RFU RASL12 (11751679_a_at) / Fold change /veh RASL12 (11751679_a_at) / RFU CDKN2B (11736163_a_at) / Fold change /veh CDKN2B (11736163_a_at) / RFU PRF1 (11729649_at) / Fold change /veh PRF1 (11729649_at) / RFU, ZNF638 /// ZNF638-IT1 / Fold change vs veh, ZNF638 /// ZNF638-IT1 / RFU, PANK3 / Fold change vs veh, PANK3 / RFU, SH3YL1 / Fold change vs veh, SH3YL1 / RFU, ZEB2 / Fold change vs veh, ZEB2 / RFU, NRIP1 / Fold change vs veh, NRIP1 / RFU, PTTG1IP / Fold change vs veh, PTTG1IP / RFU, CAPN2 / Fold change vs veh, CAPN2 / RFU, MED14 / Fold change vs veh, MED14 / RFU, SNORA58 / Fold change vs veh, SNORA58 / RFU, C1orf63 / Fold change vs veh, C1orf63 / RFU, LRRFIP1 / Fold change vs veh, LRRFIP1 / RFU, NDUFAF7 / Fold change vs veh, NDUFAF7 / RFU, SLC12A2 / Fold change vs veh, SLC12A2 / RFU, IBTK / Fold change vs veh, IBTK / RFU, ESF1 / Fold change vs veh, ESF1 / Fold change vs veh, TMEM50B / RFU, TAOK1 / Fold change vs veh, TAOK1 / RFU, ACBD3 / Fold change vs veh, ACBD3 / RFU, TMA16 / Fold change vs veh, TMA16 / RFU, RWDD3 / Fold change vs veh, RWDD3 / RFU, BCAT1 / Fold change vs veh, BCAT1 / RFU, EDEM3 / Fold change vs veh, EDEM3 / RFU, TMEM33 / Fold change vs veh, TMEM33 / RFU, WDR75 / Fold change vs veh, WDR75 / RFU, AHCTF1 / Fold change vs veh, AHCTF1 / RFU, TFRC / Fold change vs veh, TFRC / RFU, ZDHHC17 / Fold change vs veh, ZDHHC17 / RFU, NOM1 / Fold change vs veh, NOM1 / RFU, ARL8B / Fold change vs veh, ARL8B / RFU, ZBTB11 / Fold change vs veh, ZBTB11 / RFU, TAMM41 / Fold change vs veh, TAMM41 / RFU, KIAA1704 /// LOC100996395 / Fold change vs veh, KIAA1704 /// LOC100996395 / RFU, ING1 / Fold change vs veh, ING1 / RFU, TRMT61B / Fold change vs veh, TRMT61B / RFU, FUBP3 / Fold change vs veh, FUBP3 / RFU, TP53 / Fold change vs veh, TP53 / RFU, TNKS2 / Fold change vs veh, TNKS2 / RFU, ZFP14 / Fold change vs veh, ZFP14 / RFU, ACTR2 / Fold change vs veh, ACTR2 / RFU, PPP3R1 / Fold change vs veh, PPP3R1 / RFU, PIK3R1 / Fold change vs veh, PIK3R1 / RFU, HNRNPA1 / Fold change vs veh, HNRNPA1 / RFU, RNF170 / Fold change vs veh, RNF170 / RFU, ZNF28 / Fold change vs veh, ZNF28 / RFU, RNGTT / Fold change vs veh, RNGTT / RFU, OGT / Fold change vs veh, OGT / RFU, BRD1 / Fold change vs veh, BRD1 / RFU, MARS / Fold change vs veh, MARS / RFU, ZNF655 / Fold change vs veh, ZNF655 / RFU, FAHD1 / Fold change vs veh, FAHD1 / RFU, BDP1 / Fold change vs veh, BDP1 / RFU, LRRCC1 / Fold change vs veh, LRRCC1 / RFU, ARID1A / Fold change vs veh, ARID1A / RFU, ZNF146 / Fold change vs veh, ZNF146 / RFU, ZNF330 / Fold change vs veh, ZNF330 / RFU, GPN3 / Fold change vs veh, GPN3 / RFU, C9orf123 / Fold change vs veh, C9orf123 / RFU, N4BP2L2 / Fold change vs veh, N4BP2L2 / RFU, ARFIP1 / Fold change vs veh, ARFIP1 / RFU, FAM179B / Fold change vs veh, FAM179B / RFU, BCL10 / Fold change vs veh, BCL10 / RFU, UHRF1BP1L / Fold change vs veh, UHRF1BP1L / RFU, BET1 / Fold change vs veh, BET1 / RFU, CNOT2 / Fold change vs veh, CNOT2 / RFU, ZNF268 / Fold change vs veh, ZNF268 / Fold change vs veh, ZNF507 / RFU, DGCR2 / Fold change vs veh, DGCR2 / RFU, WDSUB1 / Fold change vs veh, WDSUB1 / Fold change vs veh, HSP90B1 /// MIR3652 / RFU, ADSS / Fold change vs veh, ADSS / RFU, GK / Fold change vs veh, GK / RFU, ZNF148 / Fold change vs veh, ZNF148 / RFU, TAF9 / Fold change vs veh, TAF9 / RFU, SLC1A5 / Fold change vs veh, SLC1A5 / RFU, SLMO2 / Fold change vs veh, SLMO2 / RFU, ABCC4 / Fold change vs veh, ABCC4 / RFU, LOC101060439 /// RAP1B / Fold change vs veh, LOC101060439 /// RAP1B / RFU, RFX7 / Fold change vs veh, RFX7 / RFU, GTPBP10 / Fold change vs veh, GTPBP10 / RFU, CNEP1R1 / Fold change vs veh, CNEP1R1 / RFU, BIVM-ERCC5 /// ERCC5 / Fold change vs veh, BIVM-ERCC5 /// ERCC5 / RFU, ILF3 / Fold change vs veh, ILF3 / RFU 11762660_at / Fold change /veh 11762660_at / RFU VCAN (11757783_s_at) / Fold change /veh VCAN (11757783_s_at) / RFU DDX43 (11728927_at) / Fold change /veh DDX43 (11728927_at) / RFU KRT8 (11758188_x_at) / Fold change /veh KRT8 (11758188_x_at) / RFU NKD1 (11759106_at) / Fold change /veh NKD1 (11759106_at) / RFU SRD5A1 (11742802_a_at) / Fold change /veh SRD5A1 (11742802_a_at) / RFU TPSAB1 /// TPSB2 (11721975_s_at) / Fold change /veh TPSAB1 /// TPSB2 (11721975_s_at) / RFU GSTM3 (11746129_a_at) / Fold change /veh GSTM3 (11746129_a_at) / RFU IL23R (11737362_x_at) / Fold change /veh IL23R (11737362_x_at) / RFU TMEM51 (11727254_a_at) / Fold change /veh TMEM51 (11727254_a_at) / RFU PIWIL2 (11732686_x_at) / Fold change /veh PIWIL2 (11732686_x_at) / RFU ORM1 (11744905_x_at) / Fold change /veh ORM1 (11744905_x_at) / RFU CCDC152 (11743942_at) / Fold change /veh CCDC152 (11743942_at) / RFU ECM1 (11717891_a_at) / Fold change /veh ECM1 (11717891_a_at) / RFU IL23R (11748794_a_at) / Fold change /veh IL23R (11748794_a_at) / RFU TNFAIP8L3 (11732012_x_at) / Fold change /veh TNFAIP8L3 (11732012_x_at) / RFU MBOAT4 (11741988_at) / Fold change /veh MBOAT4 (11741988_at) / RFU 11764193_at / Fold change /veh 11764193_at / RFU TMEM53 (11763286_at) / Fold change /veh TMEM53 (11763286_at) / RFU MAGEB2 (11727129_at) / Fold change /veh MAGEB2 (11727129_at) / RFU TMEM200A (11744735_a_at) / Fold change /veh TMEM200A (11744735_a_at) / RFU CCDC152 (11751479_a_at) / Fold change /veh CCDC152 (11751479_a_at) / RFU FAM211A (11726209_a_at) / Fold change /veh FAM211A (11726209_a_at) / RFU RGS16 (11746705_a_at) / Fold change /veh RGS16 (11746705_a_at) / RFU VCAN (11755009_s_at) / Fold change /veh VCAN (11755009_s_at) / RFU RHOB (11743442_s_at) / Fold change /veh RHOB (11743442_s_at) / RFU RGS16 (11720943_a_at) / Fold change /veh RGS16 (11720943_a_at) / RFU RGS16 (11720944_at) / Fold change /veh RGS16 (11720944_at) / RFU, VPS4B / Fold change vs veh, VPS4B / RFU, CREB1 / Fold change vs veh, CREB1 / RFU, DNAJC13 / Fold change vs veh, DNAJC13 / RFU, GNAQ / Fold change vs veh, GNAQ / RFU, CDK5R1 / Fold change vs veh, CDK5R1 / RFU, ZRANB3 / Fold change vs veh, ZRANB3 / RFU, CUL4A / Fold change vs veh, CUL4A / RFU, CCNY / Fold change vs veh, CCNY / RFU, UFL1 / Fold change vs veh, UFL1 / RFU, COG3 / Fold change vs veh, COG3 / RFU, DIAPH2 / Fold change vs veh, DIAPH2 / RFU, SKA2 / Fold change vs veh, SKA2 / RFU, AFF3 / Fold change vs veh, AFF3 / RFU, LMF1 / Fold change vs veh, LMF1 / RFU, IPO11 / Fold change vs veh, IPO11 / RFU, DFFB / Fold change vs veh, DFFB / RFU, FOXP1 / Fold change vs veh, FOXP1 / RFU, CARD8 / Fold change vs veh, CARD8 / RFU, STRN3 / Fold change vs veh, STRN3 / RFU, ADK / Fold change vs veh, ADK / RFU, RASSF2 / Fold change vs veh, RASSF2 / RFU, WIPF1 / Fold change vs veh, WIPF1 / RFU, LARP1B / Fold change vs veh, LARP1B / RFU, RASA1 / Fold change vs veh, RASA1 / RFU, RB1 / Fold change vs veh, RB1 / RFU, PPFIA1 / Fold change vs veh, PPFIA1 / RFU, MAT2A / Fold change vs veh, MAT2A / RFU, CCT5 / Fold change vs veh, CCT5 / RFU, WDR92 / Fold change vs veh, WDR92 / RFU, CUX1 / Fold change vs veh, CUX1 / RFU, TTC7A / Fold change vs veh, TTC7A / RFU, TMEM135 / Fold change vs veh, TMEM135 / RFU, DEPTOR / Fold change vs veh, DEPTOR / RFU, CPM / Fold change vs veh, CPM / RFU, DNAJB6 / Fold change vs veh, DNAJB6 / RFU, CACNA2D3 / Fold change vs veh, CACNA2D3 / RFU, DTX4 / Fold change vs veh, DTX4 / RFU, TFCP2 / Fold change vs veh, TFCP2 / RFU, GMCL1 /// GMCL1P1 / Fold change vs veh, GMCL1 /// GMCL1P1 / RFU, AEBP2 / Fold change vs veh, AEBP2 / RFU, SNHG1 /// SNORD22 /// SNORD25 /// SNORD26 /// SNORD27 /// SNORD28 /// SNORD29 /// SNORD31 / Fold change vs veh, SNHG1 /// SNORD22 /// SNORD25 /// SNORD26 /// SNORD27 /// SNORD28 /// SNORD29 /// SNORD31 / Fold change (Aza/veh), C12orf56 (ProbeSet 11735607_a_at) / Fold change (ACY-1035/veh), C12orf56 (ProbeSet 11735607_a_at) / Fold change (Aza/veh), FGFR1OP (ProbeSet 11751329_s_at) / Fold change (ACY-1035/veh), FGFR1OP (ProbeSet 11751329_s_at) / Fold change (Aza/veh), VPS36 (ProbeSet 11739960_a_at) / Fold change (ACY-1035/veh), VPS36 (ProbeSet 11739960_a_at) / RFU SYPL1 (11715823_x_at) / Fold change /veh SYPL1 (11715823_x_at) / RFU IGFBP7 (11715501_s_at) / Fold change /veh IGFBP7 (11715501_s_at) / RFU REEP3 (11722064_at) / Fold change /veh REEP3 (11722064_at) / RFU IGLL1 (11728026_x_at) / Fold change /veh IGLL1 (11728026_x_at): dose or concentration left out as unconfirmed
# Settings: ProbeSet 11752001_a_at; LIST D
smiles,measurement,value
Nc1ncn([C@@H]2O[C@H](CO)[C@@H](O)[C@H]2O)c(=O)n1 [azacitidine],"RFU, CUL4A",406.78 RFU
